Assay: Evaporation-induced nucleation and crystal growth of KCl aqueous solutions in microchannel fingers
Assay type: physicochemical
Source text: The devices used are two-layer PDMS on glass Microsystems (FIG. 1). The microchannels (flowing channel(s)) of the bottom layer are filled with the solution of interest, while air is circulated through the microchannels (evaporation chamber) of the top layer so as to remove the water that pervaporates through the thin membrane of PDMS that separate the two networks where they overlap (thickness e in the 10-30 μm range). Many combinations of geometries for the bottom and top networks can be envisaged. We focus here on the simple “finger” geometry of FIG. 1, a dead end (blind extremity) channel of rectangular cross section (height h, width w, length L) connected to a larger (millimetric) feeding reservoir containing the solution to be concentrated. A terminal section of length L0<L (typically mms to cms) is covered by the water removal network. The operation principle is simple: water in the bottom channel pervaporates through the thin membrane, which induces a compensating flow from the reservoir and concentration of solutes at the finger tip. […]
FIG. 11: Top: view of the chip with 15 microchannels with different evaporation lengths L0 (the bottom of the frame is the end of the evaporation zone). […] Crystal growth is then monitored xf(t). […]

SMILES: [Cl-].[K+] [KCl, potassium chloride]
- nucleation concentration cc (KCl aqueous solution, at this temperature): 4.0 ± 0.5 M
- solute concentration cx in the growing crystal (crystal density) (from initial crystal growth rate and mass conservation, Te=800±50 s): 20 ± 2 M

From US20090221082A1, “Microfluidic Evaporators And Determining Physical And/Or Chemical Properties Of Chemical Compounds Therewith” (Rhodia Operations, priority 2005, published 2009)
